Values belong to the compound of their own block, whether it stands above or below them.
Assay: In vivo biodistribution of radioactive ^99mTc complexes in female SD rats
Set-up: species or system female Sprague-Dawley (SD) rats
Settings: for Biodistribution: Large Intestine / Biodistribution: Small Intestine / Biodistribution: Stomach: unit % ID; for absolute myocardial uptake peak value: peak at 60 min post-injection
Experimental: Female SD rats (180-220 g, n=3) were fasted for 12 h before the experiment, and the purified radioactive 99mTc complexes 78-81 were prepared into physiological saline (containing 10% ethanol) solutions of about 250-350 μCi/mL. 200 μL of the above solution was injected into the tail vein of female SD rats, and the rats were killed by cervical dislocation at five time points, 15, 30, 60, 120 and 240 min after the tail vein injection. The blood, brain, heart, liver, spleen, lung, kidney, muscle, bone, large intestine, small intestine, stomach and tail were collected, weighed and counted, and the count distribution of each tissue and organ was calculated (unit: % ID/g, the unit of large intestine, small intestine and stomach is % ID), and the data are the mean±standard deviation of three mice in each phase. At the same time, 200 μL of the above solution was diluted to 20 mL, which was used as the % ID without deducting the tail count.

- Biodistribution: Blood (15 min post-injection): 0.018 ± 0.001 ID %/g
- Biodistribution: Bone (15 min post-injection): 0.24 ± 0.05 ID %/g
- Biodistribution: Heart (15 min post-injection): 3.37 ± 0.15 ID %/g
- Biodistribution: Kidney (15 min post-injection): 9.30 ± 0.20 ID %/g
- Biodistribution: Liver (15 min post-injection): 1.79 ± 0.26 ID %/g
- Biodistribution: Lungs (15 min post-injection): 0.86 ± 0.17 ID %/g
- Biodistribution: Muscle (15 min post-injection): 0.72 ± 0.11 ID %/g
- Biodistribution: Spleen (15 min post-injection): 0.70 ± 0.06 ID %/g
- Heart-to-Blood ratio (15 min post-injection): 192.24 ± 13.25
- Heart-to-Liver ratio (15 min post-injection): 1.93 ± 0.26
- Heart-to-Lungs ratio (15 min post-injection): 4.44 ± 0.26
- absolute myocardial uptake value (15 min post-injection): 3.37±0.15 % ID/g
- Biodistribution: Large Intestine (15 min post-injection): 6.53 ± 0.73 % ID
- Biodistribution: Small Intestine (15 min post-injection): 12.23 ± 2.35 % ID
- Biodistribution: Stomach (15 min post-injection): 1.05 ± 0.04 % ID
- Biodistribution: Blood (30 min post-injection): 0.016 ± 0.002 ID %/g
- Biodistribution: Bone (30 min post-injection): 0.15 ± 0.01 ID %/g
- Biodistribution: Heart (30 min post-injection): 3.45 ± 0.19 ID %/g
- Biodistribution: Kidney (30 min post-injection): 5.21 ± 1.54 ID %/g
- Biodistribution: Liver (30 min post-injection): 1.11± 0.16 ID %/g
- Biodistribution: Lungs (30 min post-injection): 0.575 ± 0.002 ID %/g
- Biodistribution: Muscle (30 min post-injection): 0.37 ± 0.06 ID %/g
- Biodistribution: Spleen (30 min post-injection): 0.88 ± 0.13 ID %/g
- Heart-to-Blood ratio (30 min post-injection): 220.61±45.73
- Heart-to-Liver ratio (30 min post-injection): 3.30 ± 0.42
- Heart-to-Lungs ratio (30 min post-injection): 6.00 ± 0.31
- absolute myocardial uptake value (30 min post-injection): 3.45±0.19 % ID/g
- Biodistribution: Large Intestine (30 min post-injection): 14.01 ± 1.87 % ID
- Biodistribution: Small Intestine (30 min post-injection): 17.82 ± 0.19 % ID
- Biodistribution: Stomach (30 min post-injection): 0.65 ± 0.11 % ID
- Biodistribution: Blood (60 min post-injection): 0.009 ± 0.001 ID %/g
- Biodistribution: Bone (60 min post-injection): 0.14 ± 0.01 ID %/g
- Biodistribution: Heart (60 min post-injection): 3.98 ± 0.25 ID %/g
- Biodistribution: Kidney (60 min post-injection): 4.90 ± 0.17 ID %/g
- Biodistribution: Liver (60 min post-injection): 0.60 ± 0.12 ID %/g
- Biodistribution: Lungs (60 min post-injection): 0.28 ± 0.07 ID %/g
- Biodistribution: Muscle (60 min post-injection): 0.77 ± 0.13 ID %/g
- Biodistribution: Spleen (60 min post-injection): 0.34 ± 0.04 ID %/g
- Heart-to-Blood ratio (60 min post-injection): 449.52±67.26
- Heart-to-Lungs ratio (60 min post-injection): 14.35 ± 2.38
- absolute myocardial uptake value (60 min post-injection): 3.98±0.25 % ID/g
- Biodistribution: Large Intestine (60 min post-injection): 6.44 ± 0.70 % ID
- Biodistribution: Small Intestine (60 min post-injection): 15.98 ± 1.55 % ID
- Biodistribution: Stomach (60 min post-injection): 0.46 ± 0.11 % ID
- Biodistribution: Blood (120 min post-injection): 0.020 ± 0.004 ID %/g
- Biodistribution: Bone (120 min post-injection): 0.12 ± 0.01 ID %/g
- Biodistribution: Heart (120 min post-injection): 2.83 ± 0.25 ID %/g
- Biodistribution: Kidney (120 min post-injection): 4.03 ± 0.24 ID %/g
- Biodistribution: Liver (120 min post-injection): 0.36 ± 0.05 ID %/g
- Biodistribution: Lungs (120 min post-injection): 0.27 ± 0.03 ID %/g
- Biodistribution: Muscle (120 min post-injection): 0.60 ± 0.11 ID %/g
- Biodistribution: Spleen (120 min post-injection): 0.25 ± 0.04 ID %/g
- Heart-to-Blood ratio (120 min post-injection): 146.14±22.27
- Heart-to-Liver ratio (120 min post-injection): 7.91 ± 0.50
- Heart-to-Lungs ratio (120 min post-injection): 10.43 ± 0.62
- absolute myocardial uptake value (120 min post-injection): 2.83±0.25 % ID/g
- Biodistribution: Large Intestine (120 min post-injection): 19.30 ± 1.11 % ID
- Biodistribution: Small Intestine (120 min post-injection): 24.46 ± 3.26 % ID
- Biodistribution: Stomach (120 min post-injection): 0.92 ± 0.03 % ID
- Biodistribution: Blood (240 min post-injection): 0.016 ± 0.002 ID %/g
- Biodistribution: Bone (240 min post-injection): 0.036 ± 0.005 ID %/g
- Biodistribution: Heart (240 min post-injection): 2.29 ± 0.05 ID %/g
- Biodistribution: Kidney (240 min post-injection): 2.07 ± 0.17 ID %/g
- Biodistribution: Liver (240 min post-injection): 0.17 ± 0.03 ID %/g
- Biodistribution: Lungs (240 min post-injection): 0.15 ± 0.02 ID %/g
- Biodistribution: Muscle (240 min post-injection): 0.48 ± 0.06 ID %/g
- Biodistribution: Spleen (240 min post-injection): 0.12 ± 0.02 ID %/g
- Heart-to-Blood ratio (240 min post-injection): 143.42±25.82
- Heart-to-Liver ratio (240 min post-injection): 11.82 ± 1.15
- Heart-to-Lungs ratio (240 min post-injection): 15.97 ± 2.41
- absolute myocardial uptake value (240 min post-injection): 2.29±0.05 % ID/g
- Biodistribution: Large Intestine (240 min post-injection): 27.81 ± 4.20 % ID
- Biodistribution: Small Intestine (240 min post-injection): 13.00 ± 1.55 % ID
- Biodistribution: Stomach (240 min post-injection): 0.30 ± 0.08 % ID
- absolute myocardial uptake peak value: 3.98±0.25 % ID/g
SMILES: COC(C)(C)C[N+]#[C][99Tc-5]([C]#[N+]CC(C)(C)OC)([C]#[N+]CC(C)(C)OC)([C]#[N+]CC(C)(C)OC)([C]#[N+]CC(C)(C)OC)[C]#[N+]CC(C)(C)OCCCCCCSCCCCC(=O)O [^99mTc complex 81]
- myocardial absolute uptake peak value (assessment): close to the corresponding value of myocardial perfusion imaging agent ^99mTc-MIBI

- Biodistribution: Blood (15 min post-injection): 0.11 ± 0.02 ID %/g
- Biodistribution: Bone (15 min post-injection): 0.13 ± 0.02 ID %/g
- Biodistribution: Brain (15 min post-injection): 0.021 ± 0.005 ID %/g
- Biodistribution: Heart (15 min post-injection): 1.50 ± 0.27 ID %/g
- Biodistribution: Kidney (15 min post-injection): 4.87 ± 0.72 ID %/g
- Biodistribution: Liver (15 min post-injection): 1.28 ± 0.19 ID %/g
- Biodistribution: Lungs (15 min post-injection): 0.30 ± 0.06 ID %/g
- Biodistribution: Muscle (15 min post-injection): 0.24 ± 0.06 ID %/g
- Biodistribution: Spleen (15 min post-injection): 0.52 ± 0.10 ID %/g
- Heart-to-Blood ratio (15 min post-injection): 13.99 ± 3.55
- Heart-to-Liver ratio (15 min post-injection): 1.22 ± 0.33
- Heart-to-Lungs ratio (15 min post-injection): 5.16 ± 0.69
- absolute myocardial uptake value (15 min post-injection): 1.50±0.27 % ID/g
- Biodistribution: Large Intestine (15 min post-injection): 0.76 ± 0.20 % ID
- Biodistribution: Small Intestine (15 min post-injection): 14.70 ± 0.78 % ID
- Biodistribution: Stomach (15 min post-injection): 0.51 ± 0.05 % ID
- Biodistribution: Blood (30 min post-injection): 0.09 ± 0.01 ID %/g
- Biodistribution: Bone (30 min post-injection): 0.09 ± 0.01 ID %/g
- Biodistribution: Brain (30 min post-injection): 0.012 ± 0.005 ID %/g
- Biodistribution: Heart (30 min post-injection): 2.24 ± 0.31 ID %/g
- Biodistribution: Kidney (30 min post-injection): 3.37 ± 0.38 ID %/g
- Biodistribution: Liver (30 min post-injection): 1.38 ± 0.16 ID %/g
- Biodistribution: Lungs (30 min post-injection): 0.27 ± 0.03 ID %/g
- Biodistribution: Muscle (30 min post-injection): 0.81 ± 0.14 ID %/g
- Biodistribution: Spleen (30 min post-injection): 0.16 ± 0.01 ID %/g
- Heart-to-Blood ratio (30 min post-injection): 25.88±5.10
- Heart-to-Liver ratio (30 min post-injection): 1.63 ± 0.27
- absolute myocardial uptake value (30 min post-injection): 2.24±0.31 % ID/g
- Biodistribution: Large Intestine (30 min post-injection): 12.06 ± 3.78 % ID
- Biodistribution: Small Intestine (30 min post-injection): 25.98 ± 3.13 % ID
- Biodistribution: Stomach (30 min post-injection): 0.47 ± 0.15 % ID
- Biodistribution: Blood (60 min post-injection): 0.04 ± 0.01 ID %/g
- Biodistribution: Bone (60 min post-injection): 0.05 ± 0.01 ID %/g
- Biodistribution: Brain (60 min post-injection): 0.009 ± 0.001 ID %/g
- Biodistribution: Heart (60 min post-injection): 2.45 ± 0.35 ID %/g
- Biodistribution: Kidney (60 min post-injection): 1.65 ± 0.53 ID %/g
- Biodistribution: Liver (60 min post-injection): 0.66 ± 0.12 ID %/g
- Biodistribution: Lungs (60 min post-injection): 0.14 ± 0.02 ID %/g
- Biodistribution: Muscle (60 min post-injection): 0.47 ± 0.10 ID %/g
- Biodistribution: Spleen (60 min post-injection): 0.09 ± 0.02 ID %/g
- Heart-to-Blood ratio (60 min post-injection): 56.19±13.56
- Heart-to-Liver ratio (60 min post-injection): 3.82±1.21
- Heart-to-Lungs ratio (60 min post-injection): 17.12±3.09
- absolute myocardial uptake value (60 min post-injection): 2.45±0.35 % ID/g
- Biodistribution: Large Intestine (60 min post-injection): 16.70 ± 2.72 % ID
- Biodistribution: Small Intestine (60 min post-injection): 22.54 ± 5.67 % ID
- Biodistribution: Stomach (60 min post-injection): 0.19 ± 0.06 % ID
- Biodistribution: Blood (120 min post-injection): 0.012 ± 0.002 ID %/g
- Biodistribution: Bone (120 min post-injection): 0.04 ± 0.01 ID %/g
- Biodistribution: Brain (120 min post-injection): 0.009 ± 0.002 ID %/g
- Biodistribution: Heart (120 min post-injection): 1.54 ± 0.45 ID %/g
- Biodistribution: Kidney (120 min post-injection): 0.65 ± 0.14 ID %/g
- Biodistribution: Liver (120 min post-injection): 0.28 ± 0.01 ID %/g
- Biodistribution: Lungs (120 min post-injection): 0.11 ± 0.03 ID %/g
- Biodistribution: Muscle (120 min post-injection): 0.21 ± 0.05 ID %/g
- Biodistribution: Spleen (120 min post-injection): 0.05 ± 0.01 ID %/g
- Heart-to-Blood ratio (120 min post-injection): 118.25±44.79
- Heart-to-Liver ratio (120 min post-injection): 5.55±1.38
- Heart-to-Lungs ratio (120 min post-injection): 15.05±5.27
- absolute myocardial uptake value (120 min post-injection): 1.54 0.45 % ID/g
- Biodistribution: Large Intestine (120 min post-injection): 27.61 ± 2.20 % ID
- Biodistribution: Small Intestine (120 min post-injection): 5.24 ± 0.78 % ID
- Biodistribution: Stomach (120 min post-injection): 0.22 ± 0.03 % ID
- Biodistribution: Blood (240 min post-injection): 0.025 ± 0.003 ID %/g
- Biodistribution: Bone (240 min post-injection): 0.13 ± 0.03 ID %/g
- Biodistribution: Brain (240 min post-injection): 0.007 ± 0.002 ID %/g
- Biodistribution: Heart (240 min post-injection): 0.60 ± 0.04 ID %/g
- Biodistribution: Kidney (240 min post-injection): 0.22 ± 0.02 ID %/g
- Biodistribution: Liver (240 min post-injection): 0.24 ± 0.01 ID %/g
- Biodistribution: Lungs (240 min post-injection): 0.09 ± 0.01 ID %/g
- Biodistribution: Muscle (240 min post-injection): 0.27 ± 0.02 ID %/g
- Biodistribution: Spleen (240 min post-injection): 0.11 ± 0.01 ID %/g
- Heart-to-Blood ratio (240 min post-injection): 24.36±1.72
- Heart-to-Liver ratio (240 min post-injection): 2.45 ± 0.18
- Heart-to-Lungs ratio (240 min post-injection): 6.66±0.60
- absolute myocardial uptake value (240 min post-injection): 0.60±0.04 % ID/g
- Biodistribution: Large Intestine (240 min post-injection): 33.40 ± 4.10 % ID
- Biodistribution: Small Intestine (240 min post-injection): 4.53 ± 0.88 % ID
- Biodistribution: Stomach (240 min post-injection): 0.20 ± 0.02 % ID
- absolute myocardial uptake peak value: 2.45±0.35 % ID/g
SMILES: COC(C)(C)C[N+]#[C][99Tc-5]([C]#[N+]CC(C)(C)OC)([C]#[N+]CC(C)(C)OC)([C]#[N+]CC(C)(C)OC)([C]#[N+]CC(C)(C)OC)[C]#[N+]CC(C)(C)OCCCCSCCCCC(=O)O [^99mTc complex 79]
